Source: publication PMC4738305, “Metabolism and Disposition of Aditoprim in Swine, Broilers, Carp and Rats” (Scientific Reports, 2016)

How the values were obtained:
[1] = Radioactivity excretion (mass balance) after a single oral dose of ^3H-ADP; type: in vivo; details: single oral 5 mg/kg b. w., within 14 d
Description: Animals (4 swine, 6 broilers, 6 carp, and 3 male and 3 female rats) were housed individually in clean, suspended wire-mesh metabolism cages, designed to separate the urine from the feces (carp were raised in individual aquaria). Each animal was weighed and assigned with a permanent identification number. A single dose of ^3 H-ADP (5 mg/kg b. w., 0.1 Ci/g) was administered via the oral gavage. Excreta were collected on ice at the pre-administration, in the period of 6, 12, and 24 h on day 1 d, and afterwards, intermittently in the period of 24 h up to 14 d. The piscine excreta were collected by changing and collecting raised water. The total volume or weight of each sample was measured and homogenized. The total radioactivity levels were determined through LSC for the recovery calculations. After the preparation, the samples were analyzed through LC/MS-IT-TOF with v. […] The pretreatment samples were used as controls to determine the background radioactivity or the endogenous nondrug-related ions observed within respective matrices or their extracts.
Measurements of the total radioactivity in each sample were conducted by Packard Tri-Carb 2900 TR liquid scintillation counter (PerkinElmer Life and Analytical Sciences). […] The actual radioactivity of each sample was calculated by subtracting the background value form the mean radioactivity in two blank samples. […]

[2] = Tissue distribution and elimination of total radioactivity (total residues) after oral ^3H-ADP for 7 d; type: in vivo; details: rats, 5 mg/kg b.w. 7 days
Description: (0.1 Ci/g) through oral gavage for 7 consecutive days. All the animals were housed on the basis of their group in the cages or aquaria throughout the whole study period. A group of animals was slaughtered through exsanguination under diethyl ether inhalation of anesthesia in the period of 6 h, 1, 3, 7, 14, and 21 d after the administration. The blood samples were immediately collected into the heparinized tubes and was centrifuged at 1920 × g at 4 °C for 10 min to obtain the plasma. The tissues from the heart, liver, spleen, lung, kidney, craw (broilers), stomach, intestine, fat, skin, muscle, thymus, pancreas, bile, bladder, hair (scale for carp), genital gland, adrenal glands, swim bladder (carp), brain, lymph, and bursa (broilers) were carefully excised and collected. The tissues were thoroughly rinsed with the deionized water to remove the residuary blood, blotted to dryness, and finally to perform the homogenization. In order to avoid cross-contamination the dissecting instruments were washed during the tissue procurements. The blank tissues were collected in order to provide control matrices. The total radioactivity levels in each sample were determined through LSC. The samples extracted from the plasma, bile, and tissues of the liver, kidney, muscle, and fat/skin were analyzed through LC/MS-IT-TOF and v. ARC radiometric detection for metabolite profiling.
Measurements of the total radioactivity in each sample were conducted by Packard Tri-Carb 2900 TR liquid scintillation counter (PerkinElmer Life and Analytical Sciences). The detection time was 10 min for two cycles. The scintillation counter data were automatically corrected for counting efficiency by instrument-stored quench curve which was drawn with a series of sealed quenched […] standards. The actual radioactivity of each sample was calculated by subtracting the background value form the mean radioactivity in two blank samples. All the samples were analyzed in duplicate if the sample size allowed this. If the results were differed by more than 10% from the mean value, the samples were reanalyzed. The samples with LSC counts less than 2-fold of the level of the running background were considered to contain insufficient radioactivity for reliable quantification.
Aliquots of liquid samples (urine, plasma, bile and raised water, 200 μL) were mixed with 10 mL of Ultima Gold^TM scintillation fluid for the direct analysis by LSC. Aliquots of solid samples (feces and tissues, 200 mg) were digested overnight with 2 mL tissue solubilizer at 50 °C in a shaking water bath, followed by adding 200 μL of 0.1 mol/L EDTA-Na and 200 μL of 30% H2O2, and was bathed at 50 °C for 2 h to bleach. The obtained transparent liquid were mixed with 10 mL of scintillation fluid and finally were counted by LSC. The digestion efficiency was determined by using the blank samples spiked with ^3 H standard for digestion, and the measured radioactivity content in the digested samples were adjusted by using the digestion efficiency values.
The concentrations of ADP and/or its metabolites were analyzed by using the following equation: C = L/(2.22 × 10^9 × RM), where C is the concentration of ADP or/and its metabolites (mg/kg), L is the LSC count (dpm), R is the specific activity of the administered dose (0.1 Ci/g), and M is the weight or volume of samples (kg or L). The results are expressed as mean ± SD. The elimination kinetics of terminal phase for ADP and its metabolites were conducted by using the WinNonlin linear regression program (Pharsight corporation, Statistical consultants, Inc., Kentucky, USA).

COc1cc(Cc2cnc(N)nc2N)cc(OC)c1N(C)C [A0, 2,4-Diamino-5-[4-(dimethylamino)-3,5-dimethoxybenzyl] pyrimidine]
urine excretion of radioactivity ([1]; rats): 78 % of the administered dose
urine excretion of radioactivity ([1]; swine): 78 % of the administered dose

[3H]c1c(Cc2cnc(N)nc2N)cc(OC)c(N(C)C)c1OC [^3H-ADP]
Elimination kinetics Ke ([2]; Adrenal): 0.28
Elimination kinetics Ke ([2]; Bladder): 0.56
Elimination kinetics t1/2 ([2]; Bladder): 29.5 h
Elimination kinetics Ke ([2]; Blood): 0.22
Elimination kinetics t1/2 ([2]; Blood): 75.4 h
Elimination kinetics Ke ([2]; Brain): 0.26
Elimination kinetics t1/2 ([2]; Brain): 64.6 h
Elimination kinetics Ke ([2]; Fat): 0.26
Elimination kinetics Ke ([2]; Gonades): 0.40
Elimination kinetics t1/2 ([2]; Gonades): 41.5 h
Elimination kinetics Ke ([2]; Heart): 0.24
Elimination kinetics t1/2 ([2]; Heart): 70.8 h
Elimination kinetics Ke ([2]; Kidney): 0.21
Elimination kinetics Ke ([2]; Large Intestine): 0.40
Elimination kinetics t1/2 ([2]; Large Intestine): 41.3 h
Elimination kinetics Ke ([2]; Liver): 0.18
Elimination kinetics Ke ([2]; Lung): 0.24
Elimination kinetics t1/2 ([2]; Lung): 69.1 h
Elimination kinetics Ke ([2]; Muscle): 0.25
Elimination kinetics Ke ([2]; Pancreas): 0.26
Elimination kinetics t1/2 ([2]; Pancreas): 63.6 h
Elimination kinetics Ke ([2]; Skin): 0.19
Elimination kinetics t1/2 ([2]; Skin): 86.2 h
Elimination kinetics Ke ([2]; Small Intestine): 0.36
Elimination kinetics t1/2 ([2]; Small Intestine): 46.3 h
Elimination kinetics Ke ([2]; Spleen): 0.24
Elimination kinetics t1/2 ([2]; Spleen): 69.4 h
Elimination kinetics Ke ([2]; Stomach): 0.27
Elimination kinetics t1/2 ([2]; Stomach): 62.6 h
Elimination kinetics Ke ([2]; Thymus): 0.35
Elimination kinetics t1/2 ([2]; Thymus): 48.2 h
